Test results taken from US7553826B2, “Cytarabine monophosphate prodrugs” (Metabasis Therapeutics, Inc., priority 2002, dated 2009).
≈ marks a conversion by molar mass, not a printed value.

What was measured:
[1] = Single dose i.p. bolus liver levels / liver targeting in mice; conditions: for reduction of peripheral exposure (liver targeting): administered intraperitoneally
Method: At specified times post injection, mice were anesthetized and exsanguinated via cardiac puncture. The whole liver was removed, and snap-frozen in liquid nitrogen, and homogenized using a Polytron homogenizer PT 10/35 (Brinkmann Instruments, Westbury, N.Y.) in 3 volumes of 10% (v/v) perchloric acid (PCA). After a 5 min centrifugation at 2,500×g, 1 mL of supernatant was neutralized using 0.3 mL 3 M KOH/3 M KHCO3 and mixed thoroughly. Samples were then centrifuged for 5 minutes and resulting supernatants were treated with periodate in order to remove endogenous ribonucleotides which otherwise might interfere with araCTP detection. […] Resulting samples were analyzed by HPLC as described below.
To measure bone marrow araCTP, the bone marrow samples were flushed from the marrow cavities of femurs with 1.2 ml saline into pre-weighed Eppendorf tubes. After centrifugation for 20-30 seconds (Eppendorf microfuge, 14,000 rpm) and removal of the supernatant, 12 volumes of 3% PCA (v/v) were added to the bone marrow cell pellets. Samples were then vortexed until the pellet was well dissolved and centrifuged as above for 10 min. Ninety μL of extracted supernatant was neutralized to pH 7-8 using 30 μL 1 M KOH/1 M KHCO3 and again centrifuged. Resulting supernatants were periodate-treated as above.
Samples (50 μL) were injected onto the column in 70% 10 mM ammonium phosphate buffer and 30% 1 M ammonium phosphate buffer, both at pH 3.5 and containing 6% ethanol. […] A standard curve was prepared by adding known amounts of araCTP into PCA extracts from control liver or bone marrow prior to neutralizing, and preparing HPLC samples accordingly.
To obtain plasma, blood was transferred to heparinized micro-collection tubes and centrifuged in an Eppendorf microfuge at 14,000 rpm for 2 minutes. Resulting plasma was collected, placed on dry ice, and subsequently stored at −20° C. On the day of analysis, proteins were precipitated by adding 1 mL acetonitrile to 100 μL of plasma. After 10 min centrifugation (Eppendorf microfuge, 14,000 rpm), the supernatant was removed and dried in a Savant SpeedVac Plus SC110A. Samples were reconstituted with 110 μL of mobile phase buffer (20 mM KH2PO4, pH 4.5), sonicated for 5 min, and centrifuged for 30 seconds. […] AraC and prodrugs were detected by absorbance at 280 nm and quantitated using standard curves obtained with spiked plasma samples processed as above.
Results are expressed as mean±standard error of the mean. Data were analyzed by repeated measures ANOVA, followed by the Tukey HSD post-hoc test for comparisons at individual time points when appropriate. A p-value of less than 0.05 was considered statistically significant. Dotted lines in figures indicate LOQ (limit of quantitation) using the indicated HPLC method.
(§1) In those studies, liver, plasma and bone marrow samples were obtained at necropsy to evaluate liver targeting.
(§2) Results are expressed as mean±standard error of the mean. When appropriate, AUC was calculated from time zero to the last time-point of the study. Liver targeting indices (LTIs) were calculated by dividing the liver araCTP AUC by the AUC for plasma araC (plasma LTI) or by the AUC for bone marrow araCTP (bone marrow LTI) for each compound. For the continuous infusion studies, the steady state araCTP levels were divided by the steady state plasma araC levels.

[2] = test system: human liver microsomes; assay: Enzyme kinetics of prodrug activation to araCMP in human liver microsomes; conditions: activation to araCMP
[3] = Liver araCTP and liver targeting with continuous i.v. infusion in rats
Excerpt: A saline filled blunt PE-50 tubing catheter (Intramedic, Becton Dickinson, Sparks, Md.) was inserted into the jugular vein, exteriorized between the scapulae and connected to a swivel-tethering constant infusion system (Lomir Biomedical, Inc., Malone, N.Y. and Harvard Apparatus, Inc., South Natick, Mass.). The tubing was filled with heparinized saline and sealed, and the animals allowed to recover for one to seven days.
After the various durations of infusion the animals were anesthetized by intra-catheter injections of the anesthetic mix described above. Blood samples were obtained via cardiac puncture using a 23-gauge needle attached to a heparin coated 3 cc syringe.
as §1, §2

[4] = Aqueous stability; format: physicochemical; conditions: 50 μM
Method: Diluted solutions (50 μM) were incubated at 37° C. in a Fisher Scientific dry bath incubator (catalog # 11-718-2) with samples collected every 24 hours and stored at −80° C. Plasma samples (100 μL) were quenched with 1 mL of acetonitrile. […] Samples were resuspended in 120 μL of mobile phase buffer before HPLC injection.
Samples were analyzed on an HP1090 or HP1100 (Hewlett Packard) HPLC using a C-18 Alltech Econosphere column, 150 mm×4.6 mm (catalog # 70065), with a C-18 Alltech Econosphere guard column, 7.5 mm×4.6 mm (catalog # 96121). Samples were eluted with a methanol gradient: 0% for 5 minutes, then increasing to 10% at 10 minutes, 30% at 20 minutes, and 60% at 25 minutes. The column was allowed to equilibrate in 0% methanol for 10 minutes before the next injection. The flow rate was 1 mL/minute with a column temperature of 40° C. Prodrugs eluted around 19.5 minutes and were monitored by UV absorbance at 280 nm. For prodrugs in aqueous conditions, the same method was employed except the methanol gradient was as follows: 0% for 5 minutes, increasing to 10% at 10 minutes, and 30% at 20 minutes with prodrug eluting around 20 minutes.

[5] = Solubility; format: physicochemical
Method: With each of the three buffer systems, saturating solutions of Compound A and Compound B were prepared as follows. […] The resultant vials were sealed and equilibrated by tumbling at 25° C. for a minimum of 24 h. At the end of the incubation period, prodrug that was not in solution was removed from the samples by filtration through a 0.45 μm pore size nylon syringe filter. These diluted samples were assayed by the HPLC method of example E.

[6] = Mouse 5-day safety pharmacology; format: in vivo; conditions: mice; for histopathology of liver, kidney and small intestine: 100 mg/kg araC or 1000 mg/kg CE Compound C; for red blood cell parameters (erythrocyte numbers, hematocrit, hemoglobin): 5 days i.p.; for red blood cell parameters (erythrocyte numbers, hematocrit, hemoglobin) / Glucose: araC 30 and 100 mg/kg/day; for effect on body weight: daily i.p. 5 days, highest dose: araC 100 mg/kg/day; for Glucose: Compound C 1000 mg/kg/day
Method: AraC was purchased from Sigma Chemical Co. (St. Louis, Mo., catalog # C1768, lot # 39H5962). Compound C and araC were dissolved in sterile physiological saline. Stock solutions were prepared daily from pre-weighed drug. All but the highest concentrations were prepared by diluting the stock solutions using additional sterile saline. Any drug not used immediately was refrigerated and used within 24 hours. All prodrugs were dosed in cytarabine molar equivalents (CE).
Male NIH Swiss Webster mice (25 to 33 g body weight, Harlan Sprague Dawley, Indianapolis, Ind.) were injected i.p. with Compound C, araC or vehicle once a day on days 0-4, approximately 3 to 4 hours following the beginning of the vivarium light cycle. Doses for Compound C were 1000, 300, 100 and 30-mg/kg nucleoside equivalents/day (equal to 1848, 554, 185 and 55.4 mg/kg/day) whereas araC was administered at 100, 30, 10 and 3 mg/kg/day. The vehicle was saline. Body weights were recorded on days 0-4 immediately prior to compound administration and on day 5 prior to sacrifice. All mice were sacrificed on day 5 (23-25 hours following the last i.p. dose) by exsanguination under halothane anesthesia, and subsequent cervical dislocation. The blood from each animal was analyzed for blood chemistry and hematology parameters as described in Example H. Livers were excised and fixed in neutral-buffered 10% formalin, and bone marrow was flushed from the right femur using 1 ml PBS without calcium or magnesium and nucleated cell counts measured as in Example H.
EDTA-treated blood samples were submitted to LabCorp (LabCorp, San Diego, Calif.) for hematology analysis including erythrocyte and platelet numbers, hemoglobin, and hematocrit. Serum chemistry analysis was also performed by LabCorp. Tissue specimens from mice treated with vehicle or 100 mg/kg araC or 1000 mg/kg CE Compound C were coded and shipped in formalin to Comparative Biosciences (Mountain View, Calif.) for preparation of hematoxylin/eosin-stained tissue sections and histopathology evaluation. Specimen codes for the histopathology studies were: #1-7, Compound C 1000 mg/kg/day; #33-40, araC 100 mg/kg/day; #65-72, Saline vehicle.
Results are expressed as mean±standard error for 5-8 animals per dose group. For selected hematology parameters, data for each animal were also presented as a % of the mean of the vehicle group. Statistical analysis was performed by one-way ANOVA followed by Dunnett's post-hoc test for differences between a control group and multiple dose groups. A p-value of less than 0.05 was considered statistically significant.

[7] = Plasma stability in human plasma; format: in vitro ADME
Method: Male- and female-pooled human plasma (Bioreclamation Inc., Hickville, N.Y., catalog # […], lot # BRH02236) containing heparin as anticoagulant, pH of all plasma aliquots was 8.3. […] Samples (100 μL) were quenched with 1 mL of acetonitrile. […] Samples were resuspended in 120 μL of mobile phase buffer before HPLC analysis. For plasma samples, 40 μL or 50 μL samples were injected onto the column described in Example E with mobile phase buffer, 20 mM potassium phosphate buffer, pH 6.2 (Fisher Scientific, catalog # P261-1, various lots). All other HPLC analysis was performed as described in Example E.

[8] = rats, 200 mg CE/kg/day continuous intravenous infusion
[9] = Compound C 1000 mg/kg/day of nucleoside equivalents

Structure (SMILES): Nc1ccn([C@@H]2O[C@H](CO[P@]3(=O)OCC[C@H](c4ccncc4)O3)[C@@H](O)[C@@H]2O)c(=O)n1 [Compound B, 2(1H)-Pyrimidinone, 4-amino-1-[5-O-[(2S,4R)-2-oxido-4-(4-pyridinyl)-1,3,2-dioxaphosphorinan-2-yl]-β-D-arabinofuranosyl]]
- Liver araCTP Peak @ 1 hr ([1]; Mouse, 100 mg (cytarabine equivalents)/kg single IP injection): 27 nmol/g
- LTI (Liver/plasma) ([1]; Mouse, 100 mg CE/kg single IP, liver araCTP AUC / plasma araC AUC): 19.6 nmol/g/μM
- reduction of peripheral exposure (liver targeting) [1]: ~20 fold
- liver araCTP peak at 60 minutes post injection ([1]; mice, single i.p. bolus, 100 mg/kg CE): 27.00 ± 4.04 nmol/g
- Vmax ([2]; 2 mg/mL human liver microsomes lot RQX, 1 mM NADPH, pH 7.4, 37° C, 5 min): 0.13 ± 0.02 nmol/min/mg
- Km ([2]; human liver microsomes lot RQX): 3.13 ± 0.51 mM
- reduction of peripheral exposure (liver targeting) ([3]; administered by continuous intravenous infusion): ~10 fold
- LTI @ 24 hrs (Liver/plasma) [3, 8]: >12 nmol/g/μM
- Liver araCTP 24 hr [3, 8]: 5.9 nmol/g
- Liver araCTP @ 4 hr [3, 8]: 6.4 nmol/g
- Plasma Prodrug steady state [3, 8]: 25 to 35 µM
- Plasma araC steady state [3, 8]: <0.5 µM
- liver araCTP compared with Compound A ([3]; rats, continuous infusion 200 mg/kg/24 hours CE): less araCTP in the liver than Compound A
- t90 in aqueous solution ([4]; 100 mM Pi, pH 7.4, 37° C): 4 days
- t90 in aqueous solution ([4]; 100 mM citrate, pH5.0, 37° C): 1.7 days
- solubility ([5]; 0.5 M Pi pH 8.0 buffer, 25° C): 10.2 mg/mL (≈ 23.2 mM)
- solubility ([5]; 0.5 M citrate pH 4.0, 25° C): 94.6 mg/mL (≈ 215 mM)
- solubility ([5]; 0.5 M citrate pH 7.0, 25° C): 9.0 mg/mL (≈ 20.4 mM)

Structure (SMILES): Nc1ccn([C@@H]2O[C@H](COP3(=O)OCCC(c4ccncc4)O3)[C@@H](O)[C@@H]2O)c(=O)n1 (relative stereo) [Compound C, 2(1H)-Pyrimidinone, 4-amino-1-[5-O-cis-[2-oxido-4-(4-pyridinyl)-1,3,2-dioxaphosphorinan-2-yl]-β-D-arabinofuranosyl]]
- histopathology of liver, kidney and small intestine [6]: no toxicologically relevant histopathologic changes
- hepatotoxicity ([6]; 5-day repeated dose): No hepatotoxicity was observed
- safety relative to araC in terms of hematologic endpoints ([6]; 5-day repeated dose): ≥ 30 fold
- red blood cell parameters (erythrocyte numbers, hematocrit, hemoglobin) [6]: similarly affected these parameters, but at ten-fold higher doses
- dose required to reduce nucleated bone marrow cells, relative to araC [6, 9]: 30 fold
- PMN, mononuclear cell, or platelet numbers ([6]; any dose (30-1000 mg/kg/day CE) i.p. for 5 days): did not affect
- effect on body weight [6, 9]: no significant effect
- Glucose [6]: lowered
- half-lives in human plasma [7]: > 1 days
- reduction of peripheral exposure (liver targeting) [1]: ~20 fold
- reduction of peripheral exposure (liver targeting) ([3]; rat, in vivo, iv): ~10 fold

Structure (SMILES): Nc1ccn([C@@H]2O[C@H](CO)[C@@H](O)[C@@H]2O)c(=O)n1 [AraC, 1-(β-D-Arabinofuranosyl)cytosine]
- histopathology of liver, kidney and small intestine [6]: no toxicologically relevant histopathologic changes
- hepatotoxicity ([6]; 5-day repeated dose): No hepatotoxicity was observed
- number of nucleated bone marrow cells, circulating PMNs, mononuclear cells, and platelets ([6]; 30 and 100 mg/kg/day i.p. for 5 days): significantly decreased
- red blood cell parameters (erythrocyte numbers, hematocrit, hemoglobin) [6]: lowered erythrocyte numbers, hematocrit, and hemoglobin significantly
- Creatinine ([6]; araC 100 mg/kg/day): lowered
- bone-marrow cellularity, % of that in vehicle-treated animals ([6]; araC 100 mg/kg/day i.p. for 5 days): 11%
- effect on body weight [6, 9]: progressive and statistically significant drop in body weight
- Alkaline phosphatase ([6]; highest dose of araC (100 mg/kg/day)): significantly decreased
- Glucose [6]: lowered
- AUC(0-t) ([1]; male, Swiss Webster, mouse, plasma, ip, 100 mg (cytarabine equivalents)/kg): 121 µM·h
- Plasma araC steady state ([3]; rats, AraC at 2000 mg/kg/day continuous infusion): ~300 µM
